# According to patent US20230265151A1, “GIP/GLP1 CO-AGONIST COMPOUNDS” (priority 2020, published 2023):
# Like-named read-outs stand apart in the source and are kept apart here. *1 amine or outer side, *2 acyl side, *3 side chain or, on linkers, in order; H or OH if unused. Where a SMILES comes first, the peptide text is derived from it. Side-chain parts run from the residue outwards. [ ]: non-standard residue; d: D form. The star is where a group is joined. αMePhe(2-F) = C[C@](N)(Cc1ccccc1F)C(=O)O; γGlu = O=C(O)[C@H](CCC(=O)[*:2])N[*:1]; C14 diacid = O=C(O)CCCCCCCCCCCCC(=O)*; αMeY = C[C@](N)(Cc1ccc(O)cc1)C(=O)O; 4Pal = N[C@@H](Cc1ccncc1)C(=O)O; αMeL = CC(C)C[C@](C)(N)C(=O)O; Orn = NCCC[C@H](N)C(=O)O; AEEA = NCCOCCOCC(=O)O; Aib = CC(C)(N)C(=O)O
# Experiments:
# Format in all cases: cell-based
# hGIPR = target: T1, hGIPR (Homo sapiens, UniProt P48546); assay: Functional cAMP formation (HTRF) in HEK-293 clonal cells expressing hGIPR, 0.1% bovine casein, without or with 1.0% human serum albumin; details: for Emax: read-out: hGIPR Emax, % ± SEM; for EC50: cAMP, 0.1% bovine casein (no human serum albumin), geometric mean, read-out: hGIPR EC50, nM (SEM, n)
# T1 construct: expressed in transfected cells
# T1 sequence (P48546 22-466): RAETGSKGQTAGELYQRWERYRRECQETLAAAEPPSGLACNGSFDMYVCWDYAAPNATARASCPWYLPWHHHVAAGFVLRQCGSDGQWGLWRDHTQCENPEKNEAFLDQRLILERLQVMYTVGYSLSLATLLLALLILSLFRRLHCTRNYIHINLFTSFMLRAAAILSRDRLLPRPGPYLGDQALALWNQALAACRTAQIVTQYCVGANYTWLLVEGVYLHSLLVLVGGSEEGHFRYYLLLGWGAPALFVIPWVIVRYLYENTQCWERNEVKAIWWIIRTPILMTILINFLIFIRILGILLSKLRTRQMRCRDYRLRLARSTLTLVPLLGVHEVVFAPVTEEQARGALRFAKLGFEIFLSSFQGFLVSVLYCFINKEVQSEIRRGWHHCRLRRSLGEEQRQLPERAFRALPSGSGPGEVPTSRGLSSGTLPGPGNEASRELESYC
# In short: (§1)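 Readings of the HTRF 665/620 nm ratio, which falls as cAMP rises, were converted to nM cAMP using a standard curve after 30 min peptide exposure at 37° C.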
# hGCGR = target: T2, hGCGR (Homo sapiens, UniProt P47871); assay: Functional cAMP formation (HTRF) in HEK-293 clonal cells expressing hGCGR, 0.1% bovine casein, without or with 1.0% human serum albumin; details: read-out: hGCGR EC50, nM (SEM, n)
# T2 construct: expressed in transfected cells
# T2 sequence (P47871 26-477): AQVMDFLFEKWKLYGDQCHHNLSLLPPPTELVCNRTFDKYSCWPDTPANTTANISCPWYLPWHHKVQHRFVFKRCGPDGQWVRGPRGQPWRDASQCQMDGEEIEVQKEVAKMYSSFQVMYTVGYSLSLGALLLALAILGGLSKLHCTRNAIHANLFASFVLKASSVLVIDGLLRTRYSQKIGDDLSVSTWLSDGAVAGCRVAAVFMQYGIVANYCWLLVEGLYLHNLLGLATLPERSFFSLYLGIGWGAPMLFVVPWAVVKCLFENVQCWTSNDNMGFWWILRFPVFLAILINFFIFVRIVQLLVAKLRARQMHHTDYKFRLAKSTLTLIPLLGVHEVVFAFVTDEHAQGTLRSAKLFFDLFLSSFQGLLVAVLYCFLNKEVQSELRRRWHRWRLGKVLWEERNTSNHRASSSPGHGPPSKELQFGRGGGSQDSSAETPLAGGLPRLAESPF
# In short: as §1
# hGLP-1R = hGLP-1R (Homo sapiens, UniProt P43220); assay: Functional cAMP formation (HTRF) in HEK-293 clonal cells expressing hGLP-1R, 0.1% bovine casein, without or with 1.0% human serum albumin; set-up: expressed in transfected cells; details: for Emax: read-out: hGLP-1R Emax, % ± SEM; for EC50: geometric mean, read-out: hGLP-1R EC50, nM (SEM, n)
# hGLP-1R, sequence (P43220 24-463): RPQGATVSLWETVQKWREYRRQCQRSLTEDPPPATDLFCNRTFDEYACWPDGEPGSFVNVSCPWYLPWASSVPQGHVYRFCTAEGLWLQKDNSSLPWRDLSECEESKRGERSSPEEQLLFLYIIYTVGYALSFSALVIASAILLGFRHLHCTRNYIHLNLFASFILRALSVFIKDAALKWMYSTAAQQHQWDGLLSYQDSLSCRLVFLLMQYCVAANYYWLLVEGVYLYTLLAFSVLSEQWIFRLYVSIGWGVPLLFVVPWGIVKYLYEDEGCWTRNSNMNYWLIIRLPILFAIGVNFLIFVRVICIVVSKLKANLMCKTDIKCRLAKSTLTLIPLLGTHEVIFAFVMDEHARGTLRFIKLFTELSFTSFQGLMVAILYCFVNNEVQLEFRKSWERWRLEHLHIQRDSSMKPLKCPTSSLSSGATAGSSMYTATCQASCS
# In short: as §1
# [1] = HEK293, percent of maximal response to GIP(1-42)NH2, 37° C., 0.1% bovine casein, arithmetic mean
# [2] = cAMP, incubated at 37° C., 0.1% bovine casein (no human serum albumin), geometric mean
# [3] = HEK293, percent of maximal response to GLP-1(7-36)NH2, 37° C., 0.1% bovine casein, arithmetic mean
# [4] = cAMP, incubated at 37° C., 0.1% bovine casein (no human serum albumin)
# [5] = HEK293, 0.1% bovine casein and 1.0% human serum albumin, 37° C., percent of maximal response to GIP(1-42)NH2
# [6] = 0.1% bovine casein and 1.0% human serum albumin, 37° C., geometric mean
SMILES,Emax (hGIPR; [1]),EC50 (hGIPR; incubated at 37° C.),EC50 (hGCGR; [2]),Emax (hGLP-1R; [3]),EC50 (hGLP-1R; [4]),Emax (hGIPR; [5]),EC50 (hGCGR; [6]),"EC50 (hGLP-1R; 0.1% bovine casein and 1.0% human serum albumin, 37° C.)","Emax (hGIPR; HEK293, cAMP, 37° C., 0.1% bovine casein and 1.0% human serum albumin, percent of maximal response to GIP(1-42)NH2)",EC50 (hGIPR; 37° C.),"EC50 (hGCGR; cAMP, 37° C., 0.1% bovine casein (no human serum albumin), geometric mean)","EC50 (hGCGR; cAMP, 37° C., 0.1% bovine casein and 1.0% human serum albumin, geometric mean (SEM, n))","Emax (hGLP-1R; HEK293, cAMP, 37° C., 0.1% bovine casein and 1.0% human serum albumin, percent of maximal response to GLP-1(7-36)NH2)","Emax (hGLP-1R; HEK293, cAMP, 37° C., 0.1% bovine casein, percent of maximal response to GLP-1(7-36)NH2, arithmetic mean)","EC50 (hGLP-1R; cAMP, 37° C., 0.1% bovine casein (no human serum albumin))","Emax (hGLP-1R; HEK293, 0.1% bovine casein and 1.0% human serum albumin, 37° C., percent of maximal response to GLP-1(7-36)NH2)"
CC[C@H](C)[C@H](NC(=O)[C@H](CC(C)C)NC(=O)[C@](C)(Cc1ccc(O)cc1)NC(=O)[C@@H](CCC(=O)O)NC(=O)[C@@H](NC(=O)[C@H](Cc1ccccc1)NC(=O)[C@H](CCC(=O)O)NC(=O)C(C)(C)NC(=O)[C@H](CCC(N)=O)NC(=O)[C@H](C)NC(=O)[C@H](CCCCNC(=O)COCCOCCNC(=O)COCCOCCNC(=O)CC[C@H](NC(=O)CCCc1ccc(C(C)(C)C)cc1)C(=O)O)NC(=O)[C@H](CCCN)NC(=O)[C@H](CC(=O)O)NC(=O)[C@H](CC(C)C)NC(=O)[C@](C)(CC(C)C)NC(=O)[C@@H](NC(=O)[C@H](CO)NC(=O)[C@H](CCCCNC(=O)COCCOCCNC(=O)COCCOCCNC(=O)CC[C@H](NC(=O)CCCc1ccc(C(C)(C)C)cc1)C(=O)O)NC(=O)[C@H](CC(=O)O)NC(=O)[C@H](CO)NC(=O)[C@@H](NC(=O)[C@](C)(Cc1ccccc1F)NC(=O)[C@@H](NC(=O)CNC(=O)[C@H](CCC(=O)O)NC(=O)C(C)(C)NC(=O)[C@@H](N)Cc1ccc(O)cc1)[C@@H](C)O)[C@@H](C)O)[C@@H](C)CC)[C@@H](C)CC)C(=O)N[C@@H](CCC(=O)O)C(=O)NCC(=O)NCC(=O)N1CCC[C@H]1C(=O)N[C@@H](CO)C(=O)N[C@@H](CO)C(=O)NCC(=O)N[C@@H](C)C(=O)N1CCC[C@H]1C(=O)N1CCC[C@H]1C(=O)N1CCC[C@H]1C(=O)N[C@@H](CO)C(N)=O [Example 130],94.7 ± 4.51%,0.0266 nM,> 9950 nM,100 ± 1.69%,,,,,,,,,,,,
CC[C@H](C)[C@H](NC(=O)[C@H](CC(C)C)NC(=O)[C@](C)(Cc1ccc(O)cc1)NC(=O)[C@H](CCCCNC(=O)COCCOCCNC(=O)COCCOCCNC(=O)CC[C@H](NC(=O)CCCCCCCCCCCCC(=O)O)C(=O)O)NC(=O)[C@@H](NC(=O)[C@H](Cc1ccccc1)NC(=O)[C@H](CCC(=O)O)NC(=O)C(C)(C)NC(=O)[C@H](CCC(N)=O)NC(=O)[C@H](C)NC(=O)[C@H](CCCCNC(=O)COCCOCCNC(=O)COCCOCCNC(=O)CC[C@H](NC(=O)CCCCCCCCCCCCC(=O)O)C(=O)O)NC(=O)[C@H](CCCN)NC(=O)[C@H](CC(=O)O)NC(=O)[C@H](CC(C)C)NC(=O)[C@](C)(CC(C)C)NC(=O)[C@@H](NC(=O)[C@H](CO)NC(=O)[C@H](Cc1ccncc1)NC(=O)[C@H](CC(=O)O)NC(=O)[C@H](CO)NC(=O)[C@@H](NC(=O)[C@](C)(Cc1ccccc1F)NC(=O)[C@@H](NC(=O)CNC(=O)[C@H](CCC(=O)O)NC(=O)C(C)(C)NC(=O)[C@@H](N)Cc1ccc(O)cc1)[C@@H](C)O)[C@@H](C)O)[C@@H](C)CC)[C@@H](C)CC)C(=O)N[C@@H](CCC(=O)O)C(=O)NCC(=O)NCC(N)=O [Example 189] (H-Y[Aib]EGT[αMePhe(2-F)]TSD[4Pal]SI[αMeL]LD[Orn]K([AEEA-AEEA-γGlu-C14 diacid])AQ[Aib]EFIK([AEEA-AEEA-γGlu-C14 diacid])[αMeY]LIEGG-NH2; N-terminus assumed),96.6 ± 4.38%,0.0202 nM,> 9950 nM,100 ± 3.68%,0.28 nM,,,,,,,,,,,
CC[C@H](C)[C@H](NC(=O)[C@H](CCCN)NC(=O)[C@H](CC(=O)O)NC(=O)[C@H](CC(C)C)NC(=O)[C@](C)(CC(C)C)NC(=O)[C@@H](NC(=O)[C@H](CO)NC(=O)[C@H](Cc1ccncc1)NC(=O)[C@H](CC(=O)O)NC(=O)[C@H](CO)NC(=O)[C@@H](NC(=O)[C@](C)(Cc1ccccc1F)NC(=O)[C@@H](NC(=O)CNC(=O)[C@H](CCC(=O)O)NC(=O)C(C)(C)NC(=O)[C@@H](N)Cc1ccc(O)cc1)[C@@H](C)O)[C@@H](C)O)[C@@H](C)CC)C(=O)N[C@@H](C)C(=O)N[C@@H](CCC(N)=O)C(=O)NC(C)(C)C(=O)N[C@@H](CCC(=O)O)C(=O)N[C@@H](Cc1ccccc1)C(=O)N[C@H](C(=O)N[C@@H](CCCCNC(=O)COCCOCCNC(=O)COCCOCCNC(=O)CCCCCCCCCCCCC(=O)O)C(=O)N[C@@](C)(Cc1ccc(O)cc1)C(=O)N[C@@H](CC(C)C)C(=O)N[C@H](C(=O)N[C@@H](CCC(=O)O)C(=O)NCC(=O)NCC(=O)N[C@@H](CCCCNC(=O)COCCOCCNC(=O)COCCOCCNC(=O)CCCCCCCCCCCCC(=O)O)C(=O)N[C@@H](CO)C(=O)N[C@@H](CO)C(=O)NCC(=O)N[C@@H](C)C(=O)N1CCC[C@H]1C(=O)N1CCC[C@H]1C(=O)N1CCC[C@H]1C(=O)N[C@@H](CO)C(N)=O)[C@@H](C)CC)[C@@H](C)CC [Example 193],97.2 ± 4.63%,0.0201 nM,> 9950 nM,,0.382 nM,92.2 ± 0.24%,> 9950 nM,24.3 nM,,,,,,,,
CC[C@H](C)[C@H](NC(=O)[C@H](CC(C)C)NC(=O)[C@](C)(Cc1ccc(O)cc1)NC(=O)[C@@H](CCC(=O)O)NC(=O)[C@@H](NC(=O)[C@H](Cc1ccccc1)NC(=O)[C@H](CCCCNC(=O)COCCOCCNC(=O)CC[C@H](NC(=O)CCCCCCCCCCCCC(=O)O)C(=O)O)NC(=O)C(C)(C)NC(=O)[C@H](CCC(N)=O)NC(=O)[C@H](C)NC(=O)[C@H](CCCCNC(=O)COCCOCCNC(=O)CC[C@H](NC(=O)CCCCCCCCCCCCC(=O)O)C(=O)O)NC(=O)[C@H](CCCN)NC(=O)[C@H](CC(=O)O)NC(=O)[C@H](CC(C)C)NC(=O)[C@](C)(CC(C)C)NC(=O)[C@@H](NC(=O)C(C)(C)NC(=O)[C@H](Cc1ccc(O)cc1)NC(=O)[C@H](CC(=O)O)NC(=O)[C@H](CO)NC(=O)[C@@H](NC(=O)[C@](C)(Cc1ccccc1F)NC(=O)[C@@H](NC(=O)CNC(=O)[C@H](CCC(=O)O)NC(=O)C(C)(C)NC(=O)[C@@H](N)Cc1ccc(O)cc1)[C@@H](C)O)[C@@H](C)O)[C@@H](C)CC)[C@@H](C)CC)C(=O)N[C@@H](CCC(=O)O)C(=O)NCC(=O)NCC(=O)N1CCC[C@H]1C(=O)N[C@@H](CO)C(=O)N[C@@H](CO)C(=O)NCC(=O)N[C@@H](C)C(=O)N1CCC[C@H]1C(=O)N1CCC[C@H]1C(=O)N1CCC[C@H]1C(=O)N[C@@H](CO)C(N)=O [Example 366],,,,,,,,,95.9%,0.0162 nM,> 9950 nM,> 9950 nM,98.3%,89.6%,0.279 nM,
CC[C@H](C)[C@H](NC(=O)[C@H](CC(C)C)NC(=O)[C@](C)(Cc1ccc(O)cc1)NC(=O)[C@@H](CCC(=O)O)NC(=O)[C@@H](NC(=O)[C@H](Cc1ccccc1)NC(=O)[C@H](CCC(=O)O)NC(=O)C(C)(C)NC(=O)[C@H](CCC(N)=O)NC(=O)[C@H](C)NC(=O)[C@H](CCCCNC(=O)COCCOCCNC(=O)COCCOCCNC(=O)CC[C@H](NC(=O)CCCCCCCCCCCCC(=O)O)C(=O)O)NC(=O)[C@H](CCCN)NC(=O)[C@H](CC(=O)O)NC(=O)[C@H](CC(C)C)NC(=O)[C@](C)(CC(C)C)NC(=O)[C@@H](NC(=O)[C@H](CO)NC(=O)[C@](C)(CC(C)C)NC(=O)[C@H](CC(=O)O)NC(=O)[C@H](CO)NC(=O)[C@@H](NC(=O)[C@](C)(Cc1ccccc1F)NC(=O)[C@@H](NC(=O)CNC(=O)[C@H](CCC(=O)O)NC(=O)C(C)(C)NC(=O)[C@@H](N)Cc1ccc(O)cc1)[C@@H](C)O)[C@@H](C)O)[C@@H](C)CC)[C@@H](C)CC)C(=O)N[C@@H](CCC(=O)O)C(=O)NCC(=O)NCC(=O)N[C@@H](CCCCNC(=O)COCCOCCNC(=O)COCCOCCNC(=O)CC[C@H](NC(=O)CCCCCCCCCCCCC(=O)O)C(=O)O)C(=O)N[C@@H](CO)C(=O)N[C@@H](CO)C(=O)NCC(=O)N[C@@H](C)C(=O)N1CCC[C@H]1C(=O)N1CCC[C@H]1C(=O)N1CCC[C@H]1C(=O)N[C@@H](CO)C(N)=O [Example 51],,0.11 nM,> 9950 nM,85.7 ± 9.8%,,90.7%,> 9950 nM,,,,,,,,,92.9%
